The record followed here is US5599553A, “Local drug delivery film for periodontal treatment” (Dong Kook Pharmaceutical Co., Ltd., priority 1992, dated 1997).

Each structure is given as a SMILES string.

Data set [1] has as its system 139 kinds of tested bacilli. The data set is described as follows: Susceptibility test of antibiotics to bacilli in mouth. Type of data set: cell-based. On the procedure: (§1) At first, the minimal inhibitory concentration (hereinafter it is abbreviated to MIC) of minocycline for bacilli, especially Antinobacillus actinomycetemcomitans as main bacillus and the minimum period to optimum treatment effect with MIC were examined. […] Also, it was reported by Goodson et al. that the concentration more than MIC has to be sustained to inhibit growth of periodontal bacillus for at least 48 hours, especially at least 10 days for optimum treatment effect. Accordingly, local drug delivery should sustain the concentration of minocyclne in the periodontal pocket at least 4 μg/ml for at least 48 hours, and especially more than 10 days to optimize treatment effect. So the present local drug delivery was examined to learn if it coincided with the standard or not.

The subject of data set [2] is Actinobacillus actinomycetemcomitans. The data set is described as follows: Susceptibility test of antibiotics / MIC of minocycline. The class given is cell-based. As for the experimental part:
as §1

Data set [3] deals with human gingival fibroblast. The data set is described as follows: Rapid colorimetric assay for cellular growth survival (MTT).
Method: The floating solution obtained was devided into microtest plate well (obtained from Nuck, Denmark) as much as 2.5×10cell/well using the standard blood corpuscle calculation method so that MEM containing 10% fatal calf serum, peniciline 10 units/ml, streptomycine 100 μg/ml and fungizone 0.2 μl/ml became containing 2500, 5000, 10000, 15000, 20000, and 30000 cell per 200 ml and the resulting solution was incubated. Culture solution was changed next day. After 2 days, culture solution was removed and washed with HBSS. […] This was incubated in incubator at 37° C. […] As control group, MEM culture solution well was used every test. All test results were calculated as percentage unit to control group.
In data set [4] the test system is human gingival fibroblast. The data set is described as follows: Cytotoxic inhibition activity, [3H]-thymidine incorporation.
Method: Human gingival fibroblast was cultivated and divided into 24 multi-well dish as much as 1×10 ^5 cell/well each. Medium was chant ed next day. After 3 days, medium was removed and washed with Hank's balanced salt solution (hereinafter it is abbreviated to HBSS). […] After 2 hours, said solutions were stood at 4° C. for 10 min using ice cold 5% Trichloroacetic acid (TCA) 3 ml. After washing 3 or 4 times with TCA, removed TCA, and dissolved gingival fibroblast by 0.5N-NaOH 1 ml at 37° C. for 30 min. 50 μl of said solution was taken, added 4 ml of cocktail solution to said solution and count per minute was measured by liquid scintillation counter.

`CN(C)c1ccc(O)c2c1C[C@H]1C[C@H]3[C@H](N(C)C)C(=O)C(C(N)=O)=C(O)[C@@]3(O)C(=O)C1=C2O` [minocycline]: the “tested bacilli that showed susceptibility” value in data set [1] is 98%. In addition, the “break point of minocycline concentration to periodontal treatment” value in data set [2] is 2 to 4 µg/mL. For the same compound, in data set [2] (Aggregatibacter actinomycetemcomitans, read-out: concentration of minocycline at which susceptibility is shown), the MIC fell in the range of 2 to 4 µg/mL. The “difference in cell activity according to minocycline concentration” value in data set [3] is reported as “difference in cell activity according to concentration of minocycline was not observed”. The “growth of gingival fibroblast” value in data set [4] (160 μg/ml to 2560 μg/ml) is given as “growth of gingival fibroblast was not inhibited”. Further, the “growth inhibition of gingival fibroblast” value in data set [4] (observation for 7 days) was “statistical singnificance about growth inhibitory of gingival fibroblast was not observed”.
